# Reference: patent US20160176859A1, “High-Throughput Assay for Identifying Small Molecules that Modulate AMP-activated Protein Kinase (AMPK)” (North Carolina Central University, priority 2013, published 2016)
# “Also recorded” adds a separate entry of the source. Where two headings read alike, the source gives them in different places.
# Key:
# [1] = target: T1, full-length AMPK (rat His-α1, β1, γ1) (Rattus norvegicus, UniProt P54645+P80385); assay: MANT-ADP fluorescence displacement (binding) assay, full-length AMPK; settings: for thiol-reactivity: binding curves in the presence and absence of DTT: 0-1 mM DTT
# T1 construct: Tricistronic vectors encoding full-length AMPK (rat His-α1, β1, γ1); made in house; host or cells: Rosetta cells (E. coli), tricistronic vector, gift of Dr. Uwe Schlattner
# T1 sequence (P54645 with tags, fused parts or gaps limits assumed): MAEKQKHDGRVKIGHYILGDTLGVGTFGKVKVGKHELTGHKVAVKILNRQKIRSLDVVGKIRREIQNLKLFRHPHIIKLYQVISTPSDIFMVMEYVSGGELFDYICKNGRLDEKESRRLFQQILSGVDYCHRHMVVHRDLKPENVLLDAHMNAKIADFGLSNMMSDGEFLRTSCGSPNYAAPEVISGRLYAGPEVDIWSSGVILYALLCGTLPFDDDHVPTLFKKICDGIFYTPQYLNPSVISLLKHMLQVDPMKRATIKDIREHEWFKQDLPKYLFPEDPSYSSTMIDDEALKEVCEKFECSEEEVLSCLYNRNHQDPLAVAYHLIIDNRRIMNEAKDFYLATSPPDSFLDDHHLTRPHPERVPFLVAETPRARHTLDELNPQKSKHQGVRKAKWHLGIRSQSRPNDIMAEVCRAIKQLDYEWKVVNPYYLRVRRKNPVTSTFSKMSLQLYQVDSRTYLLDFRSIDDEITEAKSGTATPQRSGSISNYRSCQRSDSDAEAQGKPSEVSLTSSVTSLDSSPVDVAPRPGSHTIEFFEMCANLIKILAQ
# T1 sequence (P80386 whole entry partner): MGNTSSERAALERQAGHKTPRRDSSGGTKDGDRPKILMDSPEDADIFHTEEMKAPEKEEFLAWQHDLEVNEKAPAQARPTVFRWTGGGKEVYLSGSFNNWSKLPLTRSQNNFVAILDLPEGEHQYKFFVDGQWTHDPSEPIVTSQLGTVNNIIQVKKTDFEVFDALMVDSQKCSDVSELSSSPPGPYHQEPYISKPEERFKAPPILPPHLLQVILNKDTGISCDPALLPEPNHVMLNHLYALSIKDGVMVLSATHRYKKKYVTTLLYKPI
# T1 sequence (P80385 whole entry): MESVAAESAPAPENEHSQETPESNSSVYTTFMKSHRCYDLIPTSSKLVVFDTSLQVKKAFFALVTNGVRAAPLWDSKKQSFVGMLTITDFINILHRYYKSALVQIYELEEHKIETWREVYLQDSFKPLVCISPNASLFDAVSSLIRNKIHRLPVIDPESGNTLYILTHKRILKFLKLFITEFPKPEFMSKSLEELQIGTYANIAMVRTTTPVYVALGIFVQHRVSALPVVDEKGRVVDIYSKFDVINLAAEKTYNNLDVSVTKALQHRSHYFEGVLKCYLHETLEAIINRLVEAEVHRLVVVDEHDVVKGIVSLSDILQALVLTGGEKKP
# Protocol: (§1) Except where otherwise noted, assays were performed with the following conditions: 0.5 μM full-length AMPK (130 kDa) or 0.5 μM regulatory fragment (66.7 kDa), 0.1 μM MANT-ADP, 10 mM Tris-HCl (pH 8), 0.45% DMSO (vehicle and negative control), and 5 μM ADP (positive control). Automated assays were assembled in two steps. First, a NanoQuot (BioTek) was used to dispense 11 μL of master mix (protein, MANT-ADP, and Tris-HCl) per well in black, low volume 384-well plates (Corning-3676). Next, a Biomek NX workstation (Beckman-Coulter, Brea, Calif.) equipped with pintools (VP Scientific, San Diego Calif.) was used to transfer 50 nL of controls (columns 1, 2, 23, and 24) and small molecules (4.5 μM final). Controls and library molecules were transferred from Axygen 384-well rigid PCR plates (Cat no. 321-67-051) at 221× concentration for single-concentration screening. Plates were shaken for 10 minutes prior to reading.
# (§2) Fluorescence emission spectra of MANT-ADP were collected using a PerkinElmer EnSpire plate reader with an excitation wavelength of 360 nm. Background fluorescence from protein was subtracted from the raw data prior to plotting MANT-ADP's fluorescence in the presence of protein. Fluorescence detection for assay development and screening was performed on either a BMG Pherastar Plus (360/10 excitation and 460/10 emission filters) or a PerkinElmer EnVision (355/40 excitation and 460/25 emission filters), depending on equipment availability. Relative fluorescence units (RFUs) were recorded at room temperature.
# (§3) ScreenAble (ScreenAble Solutions, Chapel Hill, N.C.) high-throughput screening software was utilized for merging screening data and chemical structure, for statistical design of experiments, and hit selection. GraphPad Prism was used for non-linear regression analysis of dose response data.
# (§4) Binding assays. Except where otherwise noted, assay assembly and data analysis were completed according to published methods. Binding assays were manually assembled, with the exception of the similarity screen. Automated assembly of the similarity screen was completed according to published methods. Analogs were cherry-picked from a 10 mM Asinex small molecule library and a 0.5 mM kinase focused library, which has been described previously (4). Molecules were screened at a final concentration of 45 and 2.3 μM, respectively.
# [2] = tested on: p-ACC levels in HEK cells; assay: Cell-intact assay, p-ACC levels in HEK cells; type: cell-based, human; settings: for p-ACC levels, serum-treated HEK cells: 10% serum; for p-ACC levels, serum-starved HEK cells: 1 hour treatment
# Protocol: Cell-intact assays. HEK cells were grown in DMEM with 10% FBS and 1% penicillin/streptomycin at 37° C. A subset of plates was serum-starved for 5 hours on the day of the experiment. After 5 hours of serum-starvation, cells were treated with either controls (0.2% DMSO, A-769662, or Compound C) or small molecules in the absence of serum for an additional hour prior to lysis. Another subset of plates was serum-starved for 6 hours and then treated with either controls or small molecules for 1 hour in the presence of 10% FBS. A time course of both AMPK and ACC phosphorylation in HEK cells during serum starvation has already been published (Pirkmajer S, Chibalin A V. Serum starvation: caveat emptor. American journal of physiology Cell physiology. 2011 August; 301(2):C272-9. PubMed PMID: 2161361).
# After incubating in the presence of drugs for one hour, cells were washed three times with ice-cold PBS and lysed according to published methods (Kazgan N, Williams T, Forsberg L J, Brenman J E. Identification of a nuclear export signal in the catalytic subunit of AMP-activated protein kinase. Molecular biology of the cell. 2010 Oct. 1; 21(19):3433-42. PubMed PMID: 20685962. Pubmed Central PMCID: 2947478). Lysates were centrifuged at 16,000 g (10 minutes, 4° C.). Clarified supernatant (30 μL) was then transferred to 10 μL 4X loading buffer and 2 μL 1 M DTT. Samples were immediately frozen at −20° C. The concentration of protein in diluted clarified supernatant was calculated using a DC protein assay kit (BioRad) prior to western analyses.
# (§5) Western analyses. Protein samples were boiled for 15 minutes in loading buffer and DTT prior to SDS-PAGE. Blots for protein-based assays were sequentially incubated with the following: 5% BSA in 1× TBS (1 hr, 22° C.), 1:1000 rabbit anti-human p-AMPK-α antibody or p-ACC antibody (2 hr, 22° C.), and 1:10,000 donkey anti-rabbit secondary antibody (1 hr, 22° C.). Blots for phosphatase assays were probed a second time using 1:100 mouse anti-human total AMPK antibody (overnight, 4° C.; from UNC Antibody Core Facility) followed by 1:10,000 donkey anti-mouse secondary antibody (1 hr, 22° C.). Blots for clarified cell lysates were sequentially probed for p-AMPK (1:500 dilution, overnight at 4° C. or 4 hours at 22° C.), total ACC (1:1000 dilution, overnight at 4° C. or 4 hours at 22° C.), and tubulin (1:10,000 dilution, 1 hr, 22° C.); a parallel set of blots were probed for p-ACC (1:500 dilution, overnight at 4° C. or 4 hours at 22° C.), total AMPK (1:1000 dilution, overnight at 4° C. or 4 hours at 22° C.), and tubulin (1:10,000 dilution, 1 hr, 22° C.). Because phosphorylated and total protein were imaged on separate membranes, the signals were normalized to the internal tubulin signal prior to calculating the ratio of phosphorylated to total protein. Scanning and imaging were completed according to published methods.
# [3] = target: T2, purified p-AMPK (Rattus norvegicus, UniProt P54645+P80385); assay: Kinase assay with purified p-AMPK and GST-ACC peptide; type: biochemical; settings: compared to DMSO control
# T2 construct: Full-length AMPK intended for use in phosphatase and kinase assays was purified, mixed with GST-CaMKKβ; made in house; host or cells: Rosetta cells (E. coli); phosphorylated in vitro with GST-CaMKKβ, which was then removed on glutathione resin
# T2 sequence (P54645 with tags, fused parts or gaps limits assumed): as the sequence (P54645 with tags, fused parts or gaps limits assumed) above
# T2 sequence (P80386 whole entry partner): as the sequence (P80386 whole entry partner) above
# T2 sequence (P80385 whole entry): as the sequence (P80385 whole entry) above
# Protocol: Kinase assays. Assay conditions were adapted from published methods (17). The final assay buffer was comprised of 40 mM Hepes (pH 7.4) 5 mM MgCl2, 200 μM ATP, 75 mM NaCl, 0.01% Triton X-100, 1 mM DTT, and 0.45% DMSO (vehicle). Because some analogs had poor solubility at high concentrations, all analogs and controls were diluted in assay buffer and centrifuged (1 min, 5000 rpm, 4° C.) to remove insoluble matter. GST-ACC peptide and p-AMPK were thawed, diluted in assay buffer, and then added to the supernatant at final concentrations of 900 and 0.1 ng/μL, respectively. Kinase assays were assembled on ice; reactions were allowed to proceed for 30 minutes at room temperature. Reactions were stopped by the addition of loading buffer and 48 mM DTT followed promptly by freezing at −20° C.
# as §5
# [4] = target: T3, AMPK regulatory fragment (rat His-α1, 396-548; human β2, 187-272; rat γ1) (Rattus norvegicus, UniProt P80385); assay: MANT-ADP fluorescence displacement (binding) assay, AMPK regulatory fragment; settings: inhibition of MANT-ADP fluorescence; for IC50: read-out: IC50 (data in parentheses)
# T3 construct: rat His-α1, 396-548; human β2, 187-272; rat γ1; made in house; host or cells: Rosetta cells (E. coli), tricistronic vector, gift of Dr. Steve Gamblin
# T3 sequence (P54645 407-559 partner limits assumed): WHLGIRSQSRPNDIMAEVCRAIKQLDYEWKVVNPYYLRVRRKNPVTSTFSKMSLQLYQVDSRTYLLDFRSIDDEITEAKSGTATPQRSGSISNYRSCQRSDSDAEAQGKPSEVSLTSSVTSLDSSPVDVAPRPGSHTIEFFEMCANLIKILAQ
# T3 sequence (O43741 187-272 partner limits assumed): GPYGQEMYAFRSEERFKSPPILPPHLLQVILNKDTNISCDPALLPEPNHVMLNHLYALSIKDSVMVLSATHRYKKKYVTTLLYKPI
# T3 sequence (P80385 whole entry, the tested form may be a part): as the sequence (P80385 whole entry) above
# Protocol: as §1, §2, §3, §4
# [5] = tested on: phospho-AMPKα in HEK cells; assay: Western blot of treated HEK cells for phospho-AMPKα (Example 3); type: cell-based, human; settings: for AMPK modulatory activity / phospho-AMPKα (Western blot, FIG. 7): HEK cells; for phospho-AMPKα (Western blot, FIG. 7): standardized to tubulin; for phospho-AMPK (FIG. 8): human Hek293 cells
# Protocol: Approximately 50 compounds will be tested from those identified above using the methods and assays described herein on HEK cells in culture in 6 well plate format for their ability to enter cells and modulate AMPK, initially at 1 μM, 2 μM, 10 μM and 20 μM compound in 0.1% DMSO. […] Molecular biology of the cell 23, 381-389, doi:10.1091/mbc.E11-08-0699 (2012)). Examples of this approach with compounds identified from our preliminary screening that have AMPK modulatory activity are shown in FIG. 7. […] See also FIG. 8. […] By testing under multiple conditions, the likelihood of identifying agonists and antagonists of AMPK activity in vivo, and particularly those that are not dependent on a particular means of altering AMPK activity may increase.
# The phosphorylation status of AMPKα with a phospho-specific antibody (against the activation/T-loop threonine 172) (Cell Signaling) will be quantified. […] Molecular biology of the cell 21, 3433-3442, doi:10.1091/mbc.E10-04-0347 (2010)) (FIG. 7). […] In addition, phospho-ACC (Cell Signaling) will be measured by western blot. Cytoplasmic acetyl coenzyme A carboxylase (ACC) is the best known AMPK direct downstream target, and is a rate-limiting enzyme in the energy consuming process of fatty acid synthesis (Davies, S. P. et al. Purification of the AMP-activated protein kinase on ATP-gamma-sepharose and analysis of its subunit structure. European journal of biochemistry/FEBS 223, 351-357 (1994); Carling, D., Zammit, V. A. & Hardie, D. G. A common bicyclic protein kinase cascade inactivates the regulatory enzymes of fatty acid and cholesterol biosynthesis. FEBS Lett 223, 217-222 (1987)). Phospho-ACC will be standardized to both tubulin and total (non-phospho) ACC to ensure we are not measuring changes in total ACC levels. Compounds that modulate phospho-AMPKα and phospho-ACC status in the same direction (both increase or both decrease) will be prioritized over compounds that produce different affects on AMPKα versus ACC phosphorylation for in vitro kinase or phosphatase protection assays.
# [6] = full-length AMPK, inhibition of MANT-ADP fluorescence
# [7] = full-length AMPK, inhibition of MANT-ADP fluorescence, read-out: IC50
SMILES,"p-ACC levels, serum-treated HEK cells [2]","p-ACC levels, serum-starved HEK cells [2]","activity of purified p-AMPK (phosphorylation of GST-ACC peptide), dose response [3]","Hill slope [1, 6]","IC50 [1, 7] [nM]",Hill slope (data in parentheses) [4],IC50 [4] [nM],AMPK modulatory activity [5],"phospho-AMPKα (Western blot, FIG. 7) [5]",phospho-AMPK (FIG. 8) [5],thiol-reactivity: binding curves in the presence and absence of DTT [1],also measured
COC(=O)CN1C(=O)/C(=C/c2ccc(OC)cc2)SC1=S [BAS 00502779],–,–,–,–,–,–,–,–,–,–,–,inhibition of the protein-bound signal of MANT-ADP in the triplicate similarity screen ([1]; final concentration 45 μM): reproducibly inhibited
"c1cc(-c2cnn3cc(-c4ccc(OCCN5CCCCC5)cc4)cnc23)ccn1 [Compound C, reference compound]",modest decreases,best inhibition,inhibits substrate phosphorylation,–,–,–,–,–,–,–,–,–
COc1cc(C(=O)/C=C/c2cc(O)c(O)c(Cl)c2)cc(OC)c1OC [Example Z64358107],–,–,–,1.1,300,2.6,200,–,–,–,–,–
"Cc1ccc(-c2ccc(/C=C3\SC(=S)N(CC(=O)O)C3=O)o2)cc1 [STK740822, 2-{(5Z)-5-{[5-(4-Methylphenyl)furan-2-yl]methylidene}-4-oxo-2-sulfanylidene-1,3-thiazolidin-3-yl}acetic acid]",–,–,–,1.4 (1.4),2900,1.4 (1.4),1600,activating activity,increased,increase,not thiol-reactive,"Hill slope ([1]; full-length AMPK, Example 4): 1.2; IC50 ([1]; full-length AMPK, Example 4, read-out: binding IC50): 9000 nM"
"O=C1/C(=C/c2ccc(-c3ccc(F)cc3)o2)SC(=S)N1CCS(=O)(=O)O [STK823366, 2-[(5Z)-5-{[5-(4-fluorophenyl)furan-2-yl]methylidene}-4-oxo-2-sulfanylidene-1,3-thiazolidin-3-yl]ethane-1-sulfonic acid]",decreased phosphorylation; also recorded: decreases,decreased phosphorylation,dose-dependently inhibited,–,–,–,–,–,–,–,–,–
O=C1Nc2ccc(Br)cc2/C1=C1/SC(=S)N(C(Cc2ccccc2)C(=O)O)C1=O (stereo not drawn) [STL035166],–,–,–,1.3,2700,1.4,1500,inhibitory activity,decreased,increase,dramatically different dose response curve,"IC50 ([1]; 1 mM DTT, read-out: extrapolated IC50 in the presence of DTT): ~250000 nM"
